How the values were obtained:
[1] = tested on: human iPS cells (1231A3 strain); experiment: Differentiation of feeder-free cultured human iPS cells into retinal tissue; immunostaining of cell aggregates for Rx and Chx10; type: cell-based; conditions: day 17; for proportion of Rx positive cells in the total cells: BMP4 1.5 nM from day 3
[2] = tested on: human iPS cells (1231A3 strain); experiment: as above; type: cell-based; conditions: IWR-1e 3 μM in step 2 and step 3, BMP4 1.5 nM from day 3
Description: Human iPS cells (1231A3 strain, obtained from Kyoto University) were cultured under feeder free according to the method described in “Scientific Reports, 4, 3594 (2014)”. As a feeder-free medium, StemFit (registered trade mark) medium (AK03N, manufactured by Ajinomoto Co., Inc.) was used, and as a feeder-free scaffold, Laminin 511-E8 (manufactured by Nippi, Inc.) was used. As a specific maintenance culture operation, subconfluent human iPS cells (1231A3 strain) were first washed with PBS, and dispersed into single cells by using TrypLE Select (manufactured by Life Technologies). Thereafter, the aforementioned human iPS cells dispersed into single cells were seeded in a plastic culture dish coated with Laminin 511-E8, and cultured under feeder-free conditions in StemFit (registered trade mark) medium in the presence of Y27632 (ROCK inhibiting substance, 10 μM). When a 6-well plate (manufactured by Iwaki, for cell culture, culture area 9.4 cm^2) was used as the aforementioned plastic culture dish, the number of plated cells for the aforementioned human iPS cells dispersed into single cells was adjusted to 1.0×10^4. One day after seeding, the entire amount of the medium was changed with StemFit (registered trade mark) medium free of Y27632. Thereafter, once in 1-2 days, the entire amount of the medium was changed with StemFit (registered trade mark) medium free of Y27632. Thereafter, the cells were cultured until 6 days after seeding when they became subconfluent (60% of culture area is covered with cells). As a specific example of step 1 (Precondition) of the present production method, the following operation was performed. Subconfluent human iPS cells (1231A3 strain) were first washed with PBS, and dispersed into single cells by using TrypLE Select (manufactured by Life Technologies). Thereafter, the aforementioned human iPS cells dispersed into single cells were seeded in a plastic culture dish (manufactured by Iwaki) coated with Laminin 511-E8, and cultured under feeder-free conditions in StemFit (registered trade mark) medium in the presence of Y27632 (ROCK inhibiting substance, 10 μM). When a 6-well plate (manufactured by Iwaki, culture area 9.4 cm^2) was used as the aforementioned plastic culture dish, the number of plated cells for the aforementioned human iPS cells dispersed into single cells was adjusted to 1.0×10^4. When a 60 mm dish (manufactured by Iwaki, for cell culture, culture area 21 cm^2) was used as the aforementioned plastic culture dish, the number of plated cells for the aforementioned human iPS cells dispersed into single cells was adjusted to 2.0×10^4. One day after seeding, the entire amount of the medium was changed with StemFit (registered trade mark) medium free of Y27632. […]

[3] = Precondition SB431542 5 μM + SAG 300 nM in step 1, day 17

SMILES | proportion of Rx positive cells in the total cells ([1]; Example 2 Condition 2: Precondition SAG 300 nM one day in step 1, no Wnt inhibiting substance, no SAG in step 2) | Chx10 status of Rx positive cells (serial sections) ([1]; Example 2 Condition 2: Precondition SAG 300 nM, no IWR-1e, no SAG in step 2) | proportion of Rx positive cells in the total cells ([1]; Example 2 Condition 4: Precondition SAG 300 nM in step 1, SAG 30 nM in step 2, no IWR-1e) | Chx10 status of Rx positive cells (serial sections) ([1]; Example 2 Condition 4: Precondition SAG 300 nM, SAG 30 nM in step 2, no IWR-1e) | neural tissue formation ([1]; Example 2 Conditions 2-5: Precondition treatment with SAG 300 nM in step 1, versus Condition 1 without Precondition (not formed)) | Chx10 positive (strong positive) cells [2, 3] | proportion of Rx positive cells in the total cells [2, 3] | Chx10 positiveness in the cell aggregate ([2]; no Precondition in step 1, day 17) | proportion of Rx positive cells in the total cells ([2]; no Precondition in step 1, day 17 of suspension culture) | proportion of Rx positive cells in the total cells ([1]; Example 2 Condition 3: Precondition SAG 300 nM in step 1, IWR-1e 3 μM in step 2 and step 3) | Chx10 status of Rx positive cells (serial sections) ([1]; Example 2 Condition 3: Precondition SAG 300 nM, IWR-1e 3 μM in step 2 and step 3) | proportion of Rx positive cells in the total cells ([1]; Example 2 Condition 5: Precondition SAG 300 nM in step 1, SAG 30 nM in step 2, IWR-1e 3 μM in step 2 and step 3) | Chx10 status of Rx positive cells (serial sections) ([1]; Example 2 Condition 5: Precondition SAG 300 nM, SAG 30 nM in step 2, IWR-1e 3 μM in step 2 and step 3)
CNC1CCC(N(Cc2cccc(-c3ccncc3)c2)C(=O)c2sc3ccccc3c2Cl)CC1 (stereo not shown) [SAG] | about 40% | Chx10 co-positive | about 60% | Chx10 co-positive | a neural tissue was formed | – | – | – | – | – | – | – | –
O=C(Nc1cccc2cccnc12)c1ccc(N2C(=O)[C@@H]3[C@H](C2=O)[C@@H]2C=C[C@H]3C2)cc1 [IWR-1e, 4-[(3aR,4S,7R,7aS)-1,3,3a,4,7,7a-hexahydro-1,3-dioxo-4,7-methano-2H-isoindol-2-yl]-N-8-quinolinyl-benzamide] | – | – | – | – | – | about 60% | about 60% | weak Chx10 positiveness | about 40% | about 90% | Chx10 co-positive | about 90% | Chx10 co-positive

Source: US11371016B2, “Method for producing retinal tissue” (SUMITOMO PHARMA CO., LTD., priority 2016, dated 2022)
